In patent US20260356817A1, “AMINOPYRIMIDINE AND AMINOTRIAZINE DERIVATIVES AS MYC PROTEIN MODULATORS” (Sanford Burnham Prebys Medical Discovery Institute, priority 2022, published 2026):
Read-outs that look alike come from different tables or passages of the source.

System: Myc
Assay: Myc inhibition assay: Myc expression per cell by anti-Myc immunofluorescence, high-content imaging
Assay type: cell-based, human (patient-derived medulloblastoma xenograft cells)
Settings: medulloblastoma PDX cells, 4 h
Outline: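 Cells from Myc-driven medulloblastoma patient-derived orthotopic xenografts, propagated only in NSG mouse cerebellum, were dissociated and plated in serum-free medium. After overnight recovery, compounds were applied for 4 hours; cells were then fixed, stained for Myc and DAPI, and per-cell Myc quantified by high-content imaging to derive IC50.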

[1] = Table 1, read-out: IC50 (Myc inhibition)
[2] = Table 2, read-out: MYC Inhibition IC50

IC50 [1] [µM] | IC50 [2] [µM] | SMILES
10 to 100 | 10 to 100 | Oc1cccc(-c2ccnc(Nc3ccccc3)n2)n1 [Compound 226, 6-(2-(phenylamino)pyrimidin-4-yl)pyridin-2-ol]
10 to 100 | 10 to 100 | COc1cccc(-c2ccnc(N(C)c3ccccc3)n2)n1 [Compound 227, 4-(6-methoxypyridin-2-yl)-N-methyl-N-phenylpyrimidin-2-amine]
1 to 10 | 1 to 10 | COc1cncc(-c2ccnc(Nc3ccccc3)n2)c1 [Compound 228, 4-(5-methoxypyridin-3-yl)-N-phenylpyrimidin-2-amine]
10 to 100 | 10 to 100 | Oc1cc(-c2ccnc(Cc3ccccc3)n2)ccn1 [Compound 229, 4-(2-Benzylpyrimidin-4-yl)pyridin-2-ol]
10 to 100 | 10 to 100 | COc1cc(-c2ccnc(Cc3ccccc3)n2)ccn1 [Compound 230, 2-Benzyl-4-(2-methoxypyridin-4-yl)pyrimidine]
10 to 100 | 10 to 100 | Oc1cc(-c2ccnc(Sc3ccccc3)n2)ccn1 [Compound 231, 4-(2-(phenylthio)pyrimidin-4-yl)pyridin-2-ol]
10 to 100 | 10 to 100 | Oc1cc(-c2ccnc(Oc3ccccc3)n2)ccn1 [Compound 232, 4-(2-phenoxypyrimidin-4-yl)pyridin-2-ol]
1 to 10 | 1 to 10 | Oc1cc(-c2ncnc(Nc3ccccc3)n2)ccn1 [Compound 233, 4-(4-(phenylamino)-1,3,5-triazin-2-yl)pyridin-2-ol]
0.2 to 1 | 0.2 to 1 | COc1cc(-c2ccnc(Sc3ccccc3)n2)ccn1 [Compound 234, 4-(2-methoxypyridin-4-yl)-2-(phenylthio)pyrimidine]
10 to 100 | 10 to 100 | COc1cc(-c2ccnc(Oc3ccccc3)n2)ccn1 [Compound 235, 4-(2-methoxypyridin-4-yl)-2-phenoxypyrimidine]
10 to 100 | 10 to 100 | COc1cccc(-c2ccnc(Nc3ccccc3)n2)n1 [Compound 236, 4-(6-methoxypyridin-2-yl)-N-phenylpyrimidin-2-amine]
10 to 100 | 10 to 100 | CN(c1cccc(F)c1)c1nccc(-c2ccnc(O)c2)n1 [Compound 237, 4-(2-((3-fluorophenyl)(methyl)amino)pyrimidin-4-yl)pyridin-2-ol]
1 to 10 | 1 to 10 | Oc1ccc(-c2ccnc(Nc3ccccc3)n2)cn1 [Compound 238, 5-(2-(phenylamino)pyrimidin-4-yl)pyridin-2-ol]
10 to 100 | 10 to 100 | COc1ccc(-c2ccnc(Nc3ccccc3)n2)cn1 [Compound 239, 4-(6-methoxypyridin-3-yl)-N-phenylpyrimidin-2-amine]
1 to 10 | 1 to 10 | COc1cc(-c2ncnc(Nc3ccccc3)n2)ccn1 [Compound 240, 4-(2-methoxypyridin-4-yl)-N-phenyl-1,3,5-triazin-2-amine]
0.2 to 1 | 0.2 to 1 | Oc1cc(-c2ccnc(Nc3cccc(C(F)(F)F)c3)n2)ccn1 [Compound 241, 4-(2-((3-(trifluoromethyl)phenyl)amino)pyrimidin-4-yl)pyridin-2-ol]
0.2 to 1 | 0.2 to 1 | Oc1cc(-c2ccnc(Nc3cccc(F)c3)n2)ccn1 [Compound 242, 4-(2-((3-fluorophenyl)amino)pyrimidin-4-yl)pyridin-2-ol]
1 to 10 | 1 to 10 | COc1cc(-c2ccnc(Nc3cccc(F)c3)n2)ccn1 [Compound 243, N-(3-fluorophenyl)-4-(2-methoxypyridin-4-yl)pyrimidin-2-amine]
1 to 10 | 1 to 10 | Oc1cccc(-c2ccnc(Nc3ccccc3)n2)c1 [Compound 244, 3-(2-(phenylamino)pyrimidin-4-yl)phenol]
10 to 100 | 10 to 100 | COc1cccc(-c2cccc(Nc3ccccc3)n2)c1 [Compound 245, 6-(3-Methoxyphenyl)-N-phenylpyridin-2-amine]
10 to 100 | 10 to 100 | COc1cccc(-c2ccnc(Nc3ccccc3)c2)c1 [Compound 246, 4-(3-Methoxyphenyl)-N-phenylpyridin-2-amine]
1 to 10 | 1 to 10 | COc1cccc(-c2ccnc(N(C)c3ccccc3)n2)c1 [Compound 247, 4-(3-methoxyphenyl)-N-methyl-N-phenylpyrimidin-2-amine]

IC50 [1] [µM] | IC50 [2] [µM] | SMILES
10 to 100 | 10 to 100 | COc1cccc(-c2ccnc(Nc3ccccc3OC)n2)c1 [Compound 248, N-(2-methoxyphenyl)-4-(3-methoxyphenyl)pyrimidin-2-amine]
1 to 10 | 1 to 10 | COc1cccc(-c2ccnc(Nc3cccc(Cl)c3)n2)c1 [Compound 249, N-(3-chlorophenyl)-4-(3-methoxyphenyl)pyrimidin-2-amine]
1 to 10 | 1 to 10 | COc1cccc(Nc2nccc(-c3cccc(OC)c3)n2)c1 [Compound 250, N,4-bis(3-methoxyphenyl)pyrimidin-2-amine]
1 to 10 | 1 to 10 | Oc1cc(-c2ccnc(Nc3ccccc3)n2)ccn1 [Compound 251, 4-(2-(phenylamino)pyrimidin-4-yl)pyridin-2-ol]
10 to 100 | 10 to 100 | COc1cc(-c2ccnc(Nc3ccccc3)n2)ccn1 [Compound 252, 4-(2-methoxypyridin-4-yl)-N-phenylpyrimidin-2-amine]
10 to 100 | 10 to 100 | COc1cccc(-c2ccnc(Nc3ccccc3)n2)c1 [Compound 253, 4-(3-methoxyphenyl)-N-phenylpyrimidin-2-amine]
< 0.2 | < 0.2 | O=C(Nc1cccc(Nc2nccc(-c3ccc4[nH]cnc4c3)n2)c1)c1ccco1 [Compound 254, N-(3-((4-(1H-benzo[d]imidazol-5-yl)pyrimidin-2-yl)amino)phenyl)furan-2-carboxamide]
1 to 10 | 1 to 10 | CS(=O)(=O)Nc1cccc(Nc2nccc(-c3ccc4[nH]cnc4c3)n2)c1 [Compound 255, N-(3-((4-(1H-benzo[d]imidazol-5-yl)pyrimidin-2-yl)amino)phenyl)methanesulfonamide]
< 0.2 | < 0.2 | CC(=O)c1cccc(Nc2nccc(-c3ccc4[nH]cnc4c3)n2)c1 [Compound 256, 1-(3-((4-(1H-benzo[d]imidazol-5-yl)pyrimidin-2-yl)amino)phenyl)ethan-1-one]
0.2 to 1 | 0.2 to 1 | CC(C)C(=O)Nc1cccc(Nc2nccc(-c3ccc4[nH]cnc4c3)n2)c1 [Compound 257, N-(3-((4-(1H-benzo[d]imidazol-5-yl)pyrimidin-2-yl)amino)phenyl)isobutyramide]
< 0.2 | < 0.2 | Fc1cc(Nc2nccc(-c3ccc4[nH]cnc4c3)n2)cc(F)c1F [Compound 258, 4-(1H-benzo[d]imidazol-5-yl)-N-(3,4,5-trifluorophenyl)pyrimidin-2-amine]
< 0.2 | < 0.2 | c1cc(Nc2nccc(-c3ccc4[nH]cnc4c3)n2)cc(-n2ccnn2)c1 [Compound 259, N-(3-(1H-1,2,3-triazol-1-yl)phenyl)-4-(1H-benzo[d]imidazol-5-yl)pyrimidin-2-amine]
< 0.2 | < 0.2 | O=S(=O)(c1cccc(Nc2nccc(-c3ccc4[nH]cnc4c3)n2)c1)C(F)(F)F [Compound 260, 4-(1H-benzo[d]imidazol-5-yl)-N-(3-((trifluoromethyl)sulfonyl)phenyl)pyrimidin-2-amine]
< 0.2 | < 0.2 | c1cc(Nc2nccc(-c3ccc4[nH]cnc4c3)n2)cc(-c2ccn[nH]2)c1 [Compound 261, N-(3-(1H-pyrazol-5-yl)phenyl)-4-(1H-benzo[d]imidazol-5-yl)pyrimidin-2-amine]
1 to 10 | 1 to 10 | CN(c1cccc(Nc2nccc(-c3ccc4[nH]cnc4c3)n2)c1)S(=O)(=O)c1ccccc1 [Compound 262, N-(3-((4-(1H-benzo[d]imidazol-5-yl)pyrimidin-2-yl)amino)phenyl)-N-methylbenzenesulfonamide]
< 0.2 | < 0.2 | O=C(Nc1ccccc1)c1cccc(Nc2nccc(-c3ccc4[nH]cnc4c3)n2)c1 [Compound 263, 3-((4-(1H-benzo[d]imidazol-5-yl)pyrimidin-2-yl)amino)-N-phenylbenzamide]
< 0.2 | < 0.2 | c1cc(Nc2nccc(-c3ccc4[nH]cnc4c3)n2)cc(-c2cnco2)c1 [Compound 264, 4-(1H-benzo[d]imidazol-5-yl)-N-(3-(oxazol-5-yl)phenyl)pyrimidin-2-amine]
< 0.2 | < 0.2 | Cc1ccc(Nc2nccc(-c3ccc4[nH]cnc4c3)n2)cc1C(F)(F)F [Compound 265, 4-(1H-benzo[d]imidazol-5-yl)-N-(4-methyl-3-(trifluoromethyl)phenyl)pyrimidin-2-amine]
1 to 10 | 1 to 10 | FC(F)(F)c1ccc(Nc2nccc(-c3ccc4[nH]cnc4c3)n2)cc1 [Compound 266, 4-(1H-benzo[d]imidazol-5-yl)-N-(4-(trifluoromethyl)phenyl)pyrimidin-2-amine]
< 0.2 | < 0.2 | c1cc(Nc2nccc(-c3ccc4[nH]cnc4c3)n2)cc(-c2nnn[nH]2)c1 [Compound 267, N-(3-(1H-tetrazol-5-yl)phenyl)-4-(1H-benzo[d]imidazol-5-yl)pyrimidin-2-amine]
0.2 to 1 | 0.2 to 1 | c1cc(-c2ccc3[nH]cnc3c2)nc(Nc2ccc3cn[nH]c3c2)n1 [Compound 268, N-(4-(1H-benzo[d]imidazol-5-yl)pyrimidin-2-yl)-1H-indazol-6-amine]
0.2 to 1 | 0.2 to 1 | c1cc(-c2ccc3[nH]cnc3c2)nc(Nc2ccc3sccc3c2)n1 [Compound 269, N-(benzo[b]thiophen-5-yl)-4-(1H-benzo[d]imidazol-5-yl)pyrimidin-2-amine]
